Assay results reported in ChEMBL document CHEMBL1909046, “DrugMatrix in vitro pharmacology data”.
pIC50, pKi: −log10 of the molar value.

Test system: not listed separately
Assay: DRUGMATRIX: ATPase, Na+/K+ enzyme inhibition (substrate: ATP)
Format: tissue-based, Sus scrofa, Heart
Details: Not Active = under 50% inhibition at 10 µM
In the case of C[C@]12CC[C@H]3[C@@H](CCC4=CC(=O)CC[C@@H]43)[C@@H]1CC[C@@H]2O [NANDROLONE], the IC50 was “Not Active” and the Ki was “Not Active”. In the case of CN(C)C(=O)Oc1cccc([N+](C)(C)C)c1.[Br-] [NEOSTIGMINE BROMIDE], the IC50 was “Not Active” and the Ki was “Not Active”. For NC(=O)c1cccnc1 [NIACINAMIDE], the IC50 was “Not Active” and the Ki was “Not Active”. In the case of CS(=O)(=O)Nc1ccc([N+](=O)[O-])cc1Oc1ccccc1 [NIMESULIDE], the IC50 was “Not Active” and the Ki was “Not Active”. For CN1C(=O)CN=C(c2ccccc2)c2cc([N+](=O)[O-])ccc21 [NIMETAZEPAM], the IC50 was “Not Active” and the Ki was “Not Active”.

Biological target: T1, Vasoactive intestinal polypeptide receptor 1 (Homo sapiens, UniProt P32241); further: in other assays of this panel Not Active means under 50% inhibition at 10 µM
T1 sequence (P32241 whole entry): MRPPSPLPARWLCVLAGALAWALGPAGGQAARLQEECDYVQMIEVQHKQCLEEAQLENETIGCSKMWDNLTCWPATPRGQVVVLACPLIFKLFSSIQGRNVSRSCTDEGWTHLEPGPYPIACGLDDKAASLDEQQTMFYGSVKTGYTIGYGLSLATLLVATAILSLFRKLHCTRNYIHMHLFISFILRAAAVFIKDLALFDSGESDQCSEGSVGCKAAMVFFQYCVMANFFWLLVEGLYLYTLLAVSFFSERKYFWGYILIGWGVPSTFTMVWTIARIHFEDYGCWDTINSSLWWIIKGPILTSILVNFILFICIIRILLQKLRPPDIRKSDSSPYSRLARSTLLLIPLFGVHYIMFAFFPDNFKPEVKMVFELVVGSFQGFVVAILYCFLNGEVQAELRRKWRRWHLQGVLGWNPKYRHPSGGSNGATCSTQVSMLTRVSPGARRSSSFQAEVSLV
Format: cell membranes, Membrane
Details: ht-29
With C[C@]12CC[C@H]3[C@@H](CCC4=CC(=O)CC[C@@H]43)[C@@H]1CC[C@@H]2O [NANDROLONE] the IC50 was “Not Active”. For CN(C)C(=O)Oc1cccc([N+](C)(C)C)c1.[Br-] [NEOSTIGMINE BROMIDE], the IC50 was “Not Active”. For NC(=O)c1cccnc1 [NIACINAMIDE], the IC50 was “Not Active”. With CS(=O)(=O)Nc1ccc([N+](=O)[O-])cc1Oc1ccccc1 [NIMESULIDE] the IC50 was “Not Active”. With CN1C(=O)CN=C(c2ccccc2)c2cc([N+](=O)[O-])ccc21 [NIMETAZEPAM] the IC50 was “Not Active”.

Biological target: Nitric oxide synthase 1 (Rattus norvegicus, UniProt P29476); further: in other assays of this panel Not Active means under 50% inhibition at 10 µM
Sequence (P29476 whole entry): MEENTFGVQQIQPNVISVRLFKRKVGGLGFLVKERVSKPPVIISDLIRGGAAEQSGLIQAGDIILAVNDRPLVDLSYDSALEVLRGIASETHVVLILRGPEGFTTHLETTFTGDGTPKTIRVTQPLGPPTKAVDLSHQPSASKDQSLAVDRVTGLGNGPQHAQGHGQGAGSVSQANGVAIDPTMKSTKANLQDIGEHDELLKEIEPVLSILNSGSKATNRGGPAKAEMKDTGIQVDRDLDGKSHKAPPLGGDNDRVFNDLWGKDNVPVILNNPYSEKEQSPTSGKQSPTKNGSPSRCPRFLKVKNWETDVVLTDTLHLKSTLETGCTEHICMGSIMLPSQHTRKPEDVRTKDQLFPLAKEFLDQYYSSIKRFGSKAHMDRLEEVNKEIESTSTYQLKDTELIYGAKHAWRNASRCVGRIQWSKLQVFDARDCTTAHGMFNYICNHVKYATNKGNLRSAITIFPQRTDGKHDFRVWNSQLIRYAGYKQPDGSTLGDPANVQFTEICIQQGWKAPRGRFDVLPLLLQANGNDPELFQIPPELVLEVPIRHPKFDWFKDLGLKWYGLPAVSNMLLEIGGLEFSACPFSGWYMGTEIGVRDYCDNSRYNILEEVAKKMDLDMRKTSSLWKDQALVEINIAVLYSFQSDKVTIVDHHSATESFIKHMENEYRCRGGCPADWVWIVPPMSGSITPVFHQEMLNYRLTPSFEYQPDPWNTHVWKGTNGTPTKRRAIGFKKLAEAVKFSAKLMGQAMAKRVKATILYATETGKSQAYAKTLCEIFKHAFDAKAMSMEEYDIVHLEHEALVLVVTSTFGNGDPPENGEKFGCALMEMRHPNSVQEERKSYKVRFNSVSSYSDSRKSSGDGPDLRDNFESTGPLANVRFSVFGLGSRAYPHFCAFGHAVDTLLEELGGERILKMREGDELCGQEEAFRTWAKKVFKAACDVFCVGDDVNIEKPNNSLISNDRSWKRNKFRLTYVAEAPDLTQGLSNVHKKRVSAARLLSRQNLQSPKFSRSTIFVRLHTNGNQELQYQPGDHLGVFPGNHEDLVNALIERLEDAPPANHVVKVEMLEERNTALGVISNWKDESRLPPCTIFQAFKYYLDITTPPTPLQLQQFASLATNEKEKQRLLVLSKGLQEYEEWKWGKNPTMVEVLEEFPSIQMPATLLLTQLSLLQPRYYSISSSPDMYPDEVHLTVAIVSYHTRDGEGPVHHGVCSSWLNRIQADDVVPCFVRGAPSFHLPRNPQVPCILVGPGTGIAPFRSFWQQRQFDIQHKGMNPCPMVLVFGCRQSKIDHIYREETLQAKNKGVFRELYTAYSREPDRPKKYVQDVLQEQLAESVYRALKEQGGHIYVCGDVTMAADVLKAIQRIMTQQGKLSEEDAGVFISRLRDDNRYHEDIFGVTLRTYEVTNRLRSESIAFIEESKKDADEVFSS
Format: tissue-based, Cerebellum
Details: not given
In the case of C[C@]12CC[C@H]3[C@@H](CCC4=CC(=O)CC[C@@H]43)[C@@H]1CC[C@@H]2O [NANDROLONE], the IC50 was “Not Active”. In the case of CN(C)C(=O)Oc1cccc([N+](C)(C)C)c1.[Br-] [NEOSTIGMINE BROMIDE], the IC50 was “Not Active”. With NC(=O)c1cccnc1 [NIACINAMIDE] the IC50 was “Not Active”. In the case of CS(=O)(=O)Nc1ccc([N+](=O)[O-])cc1Oc1ccccc1 [NIMESULIDE], the IC50 was “Not Active”. In the case of CN1C(=O)CN=C(c2ccccc2)c2cc([N+](=O)[O-])ccc21 [NIMETAZEPAM], the IC50 was “Not Active”.

Biological target: T2, Progesterone receptor (Bos taurus, UniProt Q690N0)
T2 sequence (Q690N0 whole entry): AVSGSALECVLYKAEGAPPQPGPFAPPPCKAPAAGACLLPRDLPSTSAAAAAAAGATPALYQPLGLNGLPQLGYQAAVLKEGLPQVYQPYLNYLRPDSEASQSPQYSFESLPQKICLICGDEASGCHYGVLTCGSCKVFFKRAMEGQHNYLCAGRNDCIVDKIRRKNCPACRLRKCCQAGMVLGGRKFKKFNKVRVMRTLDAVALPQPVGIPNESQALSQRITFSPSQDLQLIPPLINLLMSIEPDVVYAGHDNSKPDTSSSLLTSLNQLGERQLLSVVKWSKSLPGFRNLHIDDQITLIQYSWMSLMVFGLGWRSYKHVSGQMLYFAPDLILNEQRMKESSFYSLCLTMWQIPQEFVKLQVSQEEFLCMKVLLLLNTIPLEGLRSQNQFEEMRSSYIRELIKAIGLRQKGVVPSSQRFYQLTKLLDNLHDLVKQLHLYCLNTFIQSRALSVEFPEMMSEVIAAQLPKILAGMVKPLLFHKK
Assay: DRUGMATRIX: Progesterone radioligand binding (ligand: [3H] R-5020)
Format: tissue-based, Uterus
Details: Not Active = under 50% inhibition at 10 µM
For CN(C)C(=O)Oc1cccc([N+](C)(C)C)c1.[Br-] [NEOSTIGMINE BROMIDE], the IC50 was “Not Active”. For NC(=O)c1cccnc1 [NIACINAMIDE], the IC50 was “Not Active”. In the case of CS(=O)(=O)Nc1ccc([N+](=O)[O-])cc1Oc1ccccc1 [NIMESULIDE], the IC50 was “Not Active”. In the case of CN1C(=O)CN=C(c2ccccc2)c2cc([N+](=O)[O-])ccc21 [NIMETAZEPAM], the IC50 was “Not Active”.

Same assay, conditions: Not Active = under 50% inhibition at 10 µM; read-out: IC50
C[C@]12CC[C@H]3[C@@H](CCC4=CC(=O)CC[C@@H]43)[C@@H]1CC[C@@H]2O [NANDROLONE] showed a pIC50 of 6.77.

Same assay, conditions: Not Active = under 50% inhibition at 10 µM; read-out: Ki
In the case of C[C@]12CC[C@H]3[C@@H](CCC4=CC(=O)CC[C@@H]43)[C@@H]1CC[C@@H]2O [NANDROLONE], the pKi was 7.65.

Biological target: T3, Receptor-type tyrosine-protein phosphatase C (Homo sapiens, UniProt P08575);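 further: inhibition of CD45 enzyme activity measured using DiFMUP as substrate; in other assays of this panel Not Active means under 50% inhibition at 10 µM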
T3 sequence (P08575 whole entry): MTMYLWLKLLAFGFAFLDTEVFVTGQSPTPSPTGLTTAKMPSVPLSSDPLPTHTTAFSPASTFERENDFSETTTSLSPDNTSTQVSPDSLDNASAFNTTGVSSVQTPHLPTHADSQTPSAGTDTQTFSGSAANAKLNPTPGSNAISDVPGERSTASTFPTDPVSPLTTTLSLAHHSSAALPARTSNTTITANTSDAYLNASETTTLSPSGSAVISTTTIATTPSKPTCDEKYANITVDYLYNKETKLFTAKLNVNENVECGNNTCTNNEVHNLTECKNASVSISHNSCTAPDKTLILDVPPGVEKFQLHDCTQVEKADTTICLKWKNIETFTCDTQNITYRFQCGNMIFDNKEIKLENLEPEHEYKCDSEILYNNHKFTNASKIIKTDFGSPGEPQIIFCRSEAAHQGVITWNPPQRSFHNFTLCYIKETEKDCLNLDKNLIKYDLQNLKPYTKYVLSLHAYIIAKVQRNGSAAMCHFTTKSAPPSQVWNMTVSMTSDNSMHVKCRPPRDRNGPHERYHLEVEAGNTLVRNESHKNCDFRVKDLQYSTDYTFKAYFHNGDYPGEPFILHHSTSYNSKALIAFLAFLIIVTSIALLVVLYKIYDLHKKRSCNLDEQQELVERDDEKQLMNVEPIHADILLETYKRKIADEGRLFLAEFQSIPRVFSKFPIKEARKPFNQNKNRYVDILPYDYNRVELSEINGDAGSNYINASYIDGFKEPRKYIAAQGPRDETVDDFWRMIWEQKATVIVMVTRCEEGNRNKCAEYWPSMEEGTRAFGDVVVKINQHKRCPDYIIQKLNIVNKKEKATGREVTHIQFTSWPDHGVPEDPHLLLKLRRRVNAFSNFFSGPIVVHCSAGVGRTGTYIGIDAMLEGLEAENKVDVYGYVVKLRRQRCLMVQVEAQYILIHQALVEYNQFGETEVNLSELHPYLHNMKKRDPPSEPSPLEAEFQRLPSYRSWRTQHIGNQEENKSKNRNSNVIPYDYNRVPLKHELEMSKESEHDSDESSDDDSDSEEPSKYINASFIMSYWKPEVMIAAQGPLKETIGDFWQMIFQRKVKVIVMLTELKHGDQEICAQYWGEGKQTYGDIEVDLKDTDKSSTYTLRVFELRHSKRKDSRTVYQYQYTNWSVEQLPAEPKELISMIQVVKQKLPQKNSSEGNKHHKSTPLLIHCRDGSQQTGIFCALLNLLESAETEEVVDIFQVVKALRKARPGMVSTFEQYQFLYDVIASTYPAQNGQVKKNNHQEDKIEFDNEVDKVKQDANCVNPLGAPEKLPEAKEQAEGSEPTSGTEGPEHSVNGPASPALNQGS
Set-up: species or system Escherichia coli
Details: not given
In the case of C[C@]12CC[C@H]3[C@@H](CCC4=CC(=O)CC[C@@H]43)[C@@H]1CC[C@@H]2O [NANDROLONE], the IC50 was “Not Active”. In the case of CN(C)C(=O)Oc1cccc([N+](C)(C)C)c1.[Br-] [NEOSTIGMINE BROMIDE], the IC50 was “Not Active”. With NC(=O)c1cccnc1 [NIACINAMIDE] the IC50 was “Not Active”. For CS(=O)(=O)Nc1ccc([N+](=O)[O-])cc1Oc1ccccc1 [NIMESULIDE], the IC50 was “Not Active”. In the case of CN1C(=O)CN=C(c2ccccc2)c2cc([N+](=O)[O-])ccc21 [NIMETAZEPAM], the IC50 was “Not Active”.

Biological target: T4, Cytochrome P450 1A2 (Homo sapiens, UniProt P05177); further: in other assays of this panel Not Active means under 50% inhibition at 10 µM
T4 sequence (P05177 whole entry): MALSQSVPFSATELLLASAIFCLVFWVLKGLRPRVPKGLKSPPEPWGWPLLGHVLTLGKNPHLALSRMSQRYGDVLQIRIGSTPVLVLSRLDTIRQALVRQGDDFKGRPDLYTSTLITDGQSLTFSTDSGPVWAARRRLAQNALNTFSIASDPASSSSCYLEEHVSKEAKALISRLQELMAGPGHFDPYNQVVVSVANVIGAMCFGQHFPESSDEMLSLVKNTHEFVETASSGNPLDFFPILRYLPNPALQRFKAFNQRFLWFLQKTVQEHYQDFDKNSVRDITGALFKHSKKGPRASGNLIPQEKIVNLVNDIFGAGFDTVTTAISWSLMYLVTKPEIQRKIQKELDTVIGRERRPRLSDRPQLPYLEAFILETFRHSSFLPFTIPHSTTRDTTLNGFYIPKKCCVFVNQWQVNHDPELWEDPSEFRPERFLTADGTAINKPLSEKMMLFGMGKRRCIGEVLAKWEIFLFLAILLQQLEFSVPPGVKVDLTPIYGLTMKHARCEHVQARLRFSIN
Details: bti-tn-5b1-4
With C[C@]12CC[C@H]3[C@@H](CCC4=CC(=O)CC[C@@H]43)[C@@H]1CC[C@@H]2O [NANDROLONE] the IC50 was “Not Active” and the Ki was “Not Active”. With CN(C)C(=O)Oc1cccc([N+](C)(C)C)c1.[Br-] [NEOSTIGMINE BROMIDE] the IC50 was “Not Active” and the Ki was “Not Active”. In the case of NC(=O)c1cccnc1 [NIACINAMIDE], the IC50 was “Not Active” and the Ki was “Not Active”. For CS(=O)(=O)Nc1ccc([N+](=O)[O-])cc1Oc1ccccc1 [NIMESULIDE], the IC50 was “Not Active” and the Ki was “Not Active”. In the case of CN1C(=O)CN=C(c2ccccc2)c2cc([N+](=O)[O-])ccc21 [NIMETAZEPAM], the IC50 was “Not Active” and the Ki was “Not Active”.
